Assay results reported in PMC12643354, “From Oxygen to Tellurium: The Impact of the Chalcogen on Nucleophilicities and Basicities of Isochalcogenourea Catalysts” (Angewandte Chemie (International Ed. in English), 2025).
Where two headings read alike, the source gives them in different places. Marks after values point to notes of the source that are not given here.

Legend:
[1] = parameters: method as in PMID 21568333; conditions: (dma)2CH+, E = −7.02, dichloromethane, 20 °C; cited from earlier work
[2] = in methanolic aqueous solution (1:5-mixture); cited from earlier work
[3] = in dichloromethane, 20 °C; cited from earlier work
[4] = parameters: method as in PMID 21568333; conditions: (pyr)2CH+, E = −7.69, dichloromethane, 20 °C; cited from earlier work
[5] = dichloromethane, 20 °C; cited from earlier work
[6] = parameters: method as in PMID 21568333; conditions: (thq)2CH+, E = −8.22, dichloromethane, 20 °C; cited from earlier work
[7] = parameters: method as in PMID 21568333; conditions: (ind)2CH+, E = −8.76, dichloromethane, 20 °C; cited from earlier work
[8] = Kinetics of IChU reactions with reference electrophile (dma)2CH+ (stopped-flow photometry); assay type: physicochemical; conditions: E = −7.02, dichloromethane, 20 °C
From the text: (§1) In order to systematically investigate the influence of the chalcogen atom on the nucleophilicity of DHPB‐derived IChUs (Ch = O, S, Se, and Te), we utilized Mayr's benzhydrylium methodology.^[ [107] ^]
(§2) In accordance with observations in previous studies on ITU reactivity,^[ [119] ^] mixing the strongly colored benzhydrylium tetrafluoroborates 18 with excess IChUs in dichloromethane gave rise to decolorization of the solutions due to the formation of isochalcogenouronium tetrafluoroborates 19, which are colourless (Figure 3a). Owing to reversibility of the C─N bond formation, generated adducts 19 from the IChU/benzhydrylium reactions were not isolated but characterized by ^1H, ^13C, and ^77Se NMR spectroscopy (the ^77Se nucleus is remarkably sensitive with observed changes of around 100 ppm when comparing the ^77Se resonances of free ISeUs with those of the corresponding selenouronium tetrafluoroborates^[ [95] ^]). The kinetics of the IChU reactions with the reference electrophiles 18 were traced by photometric methods using standard stopped‐flow techniques. To establish pseudo first‐order conditions and to secure a sufficient decay of the benzhydrylium's absorbance during the course of the reactions, the IChUs were employed at higher concentrations than the benzhydrylium ions. First‐order rate constants k obs (s^−1) were determined by fitting the mono‐exponential decay function in Equation (2) to the decreasing absorbance (A) of 18 during their reaction with the IChUs as exemplified for the reaction of ITeU3 with (ind)2CH^+ in Figure 3b. (2) A=A0e^−kobst+C […]
(§3) First‐order rate constants k obs correlated linearly with the IChU concentration. Therefore, second‐order rate constants k 2 (L mol^−1 s^−1) were determined from the slope of the linear regression curves (Figure 3c ^[ [95] ^]). Second‐order rate constants k 2 for all kinetically investigated reactions of DHPB‐derived IChUs (Ch = O, S, Se, and Te) with benzhydrylium ions 18 are gathered in Table 1.
(§4) Apart from CH2Cl2 also MeCN and THF are solvents that are commonly employed in reactions involving isochalcogenoureas. […]

[9] = Kinetics of IChU reactions with reference electrophile (ind)2CH+ (stopped-flow photometry); assay type: physicochemical; conditions: E = −8.76, dichloromethane, 20 °C
From the text: as §1, §2, §3, §4

[10] = Brønsted basicity pKaH by chemical shift imaging NMR method in DMSO and MeCN
Protocol: Recently, Wiskur's group reported potentiometrically determined pK aH values (that is, the pK a of the conjugate acids) of achiral ITUs based on the BTM and DHPB scaffolds in aqueous media.^[ [89], [128] ^] […] In this work, we applied this NMR spectroscopic method to determine the pK aH values of further IChUs in DMSO and MeCN (Supporting Information).
First, a stock solution containing the analyte, two basic indicators and tetramethyl silane was prepared with the respective solvent (DMSO or acetonitrile).
Then 5-10 mg of acid were weighed into a NMR tube and subsequently covered with glass beads.
Figure S50: 5-10 mg of acid in Figure S51: Cover with 1 mm
Afterwards, 550 μL of the stock solution was layered carefully over the glass beads and the acid. The sample is then put in a 28 °C water bath (for DMSO) for 20 - 24h or left on the bench at 22 °C (for acetonitrile) for 1.5 - 2 h and then the NMR measurement was carried out at 20 °C.
Figure S52: Overlay the acid with the Figure S54: Visualized gradient after stock solution of two indicators and the 18h in DMSO (with Bromthymolblue) […]
Figure S53: Development of gradients in temperated water S145 […]
13.4 Indicator and Acid Data
Table S67: Limiting shifts (δH for the fully protonated and δL for the free base), pKas and abbreviations of indicators and acids in acetonitrile.
Table S68: Limiting shifts (δH for the fully protonated and δL for the free base), pKas and abbreviations of indicators

[11] = Kinetics of IChU reactions with reference electrophile (lil)2CH+ (stopped-flow photometry); assay type: physicochemical; conditions: E = −10.04, dichloromethane, 20 °C
From the text: as §1
In accordance with observations in previous studies on ITU reactivity,^[ [119] ^] mixing the strongly colored benzhydrylium tetrafluoroborates 18 with excess IChUs in dichloromethane gave rise to decolorization of the solutions due to the formation of isochalcogenouronium tetrafluoroborates 19, which are colourless (Figure 3a). […] To establish pseudo first‐order conditions and to secure a sufficient decay of the benzhydrylium's absorbance during the course of the reactions, the IChUs were employed at higher concentrations than the benzhydrylium ions. First‐order rate constants k obs (s^−1) were determined by fitting the mono‐exponential decay function in Equation (2) to the decreasing absorbance (A) of 18 during their reaction with the IChUs as exemplified for the reaction of ITeU3 with (ind)2CH^+ in Figure 3b. […]
First‐order rate constants k obs correlated linearly with the IChU concentration. Therefore, second‐order rate constants k 2 (L mol^−1 s^−1) were determined from the slope of the linear regression curves (Figure 3c ^[ [95] ^]). […]

[12] = Mayr nucleophilicity parameters N and sN (benzhydrylium methodology, Mayr-Patz equation); assay type: physicochemical; conditions: dichloromethane, 20 °C
From the text: (1) Mayr-Patz Equation: lgk20^∘C=sN(N+E)
The MPE is a linear‐free‐energy relationship that characterizes electrophiles by the electrophilicity parameter E and nucleophiles by the solvent‐dependent parameters N (nucleophilicity) and s N (sensitivity toward changes in the electrophile reactivity). By using the MPE (Equation (1)), the construction of comprehensive nucleophilicity and electrophilicity scales becomes possible, which facilitate the comparison of various classes of Lewis base organocatalysts.^[ [110], [111], [112], [113], [114], [115], [116], [117], [118], [119], [120] ^]
as §1
Figure 4 illustrates the linear correlations of the second‐order rate constants (lg k 2) with the electrophilicities E of Ar2CH^+ (18), which makes it possible to determine the Mayr nucleophilicity parameters N (and s N) for the DHPB‐derived IChUs IU3, ITU3, ISeU3, and ITeU3. […]
Figure 4 Linear correlations of second‐order rate constants (lg k 2) for the reactions of IU3, ITU3, ISeU3, and ITeU3 with Ar2CH^+ 18 (in dichloromethane at 20 °C) with the electrophilicities E of 18. The slopes of the linear correlations equal the nucleophile‐dependent sensitivity parameter s N. Intercepts on the abscissa reflect the nucleophilicity parameter N (N = –E at lg k 2 = 0).

[13] = Lewis basicity LB from equilibrium constants (photometric titrations) with benzhydrylium ions as reference Lewis acids; assay type: physicochemical; conditions: in dichloromethane, 20 °C
Protocol: (a) Lewis basicity. Previously, the Mayr group established a series of benzhydrylium ions as C‐centered Lewis acid references to construct a Lewis basicity scale in dichloromethane. Substituting experimentally determined equilibrium constants K (at 20 °C) and reported Lewis acidities LA for the benzhydrylium ions (Figure 7) in Equation (3) enables one to calculate the Lewis basicity (LB) of a Lewis base.^[ [121], [127] ^] (3) lgK(20^∘C)=LA+LB
The reversibility of the formation of adducts 19 (Equation (4)), which was also apparent in the kinetics by significant positive intercepts in several of the k obs versus [IChU] plots (Supporting Information), provided the opportunity to probe the thermodynamics of the C‐N bond‐forming reactions of IChUs with benzhydrylium ions as the reference Lewis acids in more detail.^[ [95] ^] (4) IChU+Ar2CH^+(18)⇌Ar2CH-IChU^+(19)
By assuming the validity of the Beer–Lambert law for dilute solutions, equilibrium constants K (L mol^−1) were determined in photometric titrations according to Equation (5) from the initial absorbance (A 0) of the benzhydrylium ions 18 and the absorbance at equilibrium (A, Equation 5), that is, after addition of a certain amount of an IChU.^[ [109], [110], [111], [112], [113], [114], [115], [119] ^] (5) K=[19]/[18]IChU=A0−A/AIChU

[14] = Kinetics of IChU reactions with reference electrophile (pyr)2CH+ (stopped-flow photometry); assay type: physicochemical; conditions: E = −7.69, dichloromethane, 20 °C
From the text: as §1, §2, §3, §4

Structure (SMILES) | Second-order rate constant k2 exptl [1] | Brønsted basicity pKaH(H2O) [2] | Lewis basicity LB [3] | Second-order rate constant k2 exptl [4] | Nucleophile-specific sensitivity parameter sN [5] | Nucleophilicity parameter N [5] | Second-order rate constant k2 exptl [6] | Second-order rate constant k2 exptl [7] | Second-order rate constant k2 exptl [8] [M⁻¹ s⁻¹] | Second-order rate constant k2 exptl [9] [M⁻¹ s⁻¹] | Brønsted basicity pKaH(DMSO) ([10]; in DMSO) | Brønsted basicity pKaH(MeCN) ([10]; in MeCN) | Second-order rate constant k2 exptl [11] [M⁻¹ s⁻¹] | Nucleophile-specific sensitivity parameter sN [12] | Nucleophilicity parameter N [12] | Lewis basicity LB [13] | Second-order rate constant k2 exptl [14] [M⁻¹ s⁻¹]
c1ccc2c(c1)SC1=NCCCN12 [ITU3, DHPB] | 2.29 × 10^5 ^a) L mol^−1 s^−1 | 9.9 ^c) | 15.39 | 7.49 × 10^4 ^a) L mol^−1 s^−1 | 0.78 | 13.86 | 2.07 × 10^4 ^a) L mol^−1 s^−1 | 1.11 × 10^4 ^a) L mol^−1 s^−1 | – | – | – | – | – | – | – | – | –
c1ccc2c(c1)[Te]C1=NCCCN12 [ITeU3, TeDHPB] | – | – | – | – | – | – | – | – | 1.67e+06 | 127000 | 11.0 | 19.7 | 19400 | 0.65 | 16.63 | 17.13 | 731000
